Reference: publication PMC11672637, “7-O-Carboxylic Acid-Substituted 3-O-Alkyl Difluoroquercetin; An Aztreonam-Potentiating Agent Against Carbapenemase-Producing Pseudomonas aeruginosa Through Simultaneous Inhibition of Metallo-β-Lactamase and Efflux Pump” (Antibiotics, 2024)

Experiments:
[1] = tested on: NDM-1-Producing P. aeruginosa (PA-017, blaNDM); assay: MIC / checkerboard with ATM; assay type: cell-based; design: key to Susceptibility category: S: susceptible; I: intermediate; R: resistant; conditions: PA-017; for MIC: Pseudomonas aeruginosa, compound alone, read-out: MIC, Cmpd
[2] = tested on: efflux pump activity in P. aeruginosa (PA-017, blaNDM); assay: EtBr accumulation, inhibition of efflux pump activity; assay type: cell-based; conditions: EtBr fluorescence compared with positive control CCCP
Description: The NDM-producing P. aeruginosa clinical isolate (PA-017, blaNDM) (5 mL, LB medium) was grown to reach the mid-log phase. After centrifugation at 3500 rpm for 15 min, the bacterial pellet was washed twice with PBS and resuspended to OD600 = 0.3 in PBS. To each well of a flat-bottomed black 96-well plate, 182 µL of the bacterial suspension, 4 µL of glucose [final concentration = 0.4% (w/v)], 4 µL of the synthesized compounds or positive control CCCP, and 10 µL of EtBr (final concentration = 1 µg/mL) were added. The plate was incubated at 37 °C, and fluorescence emission from EtBr (λex 480 nm/λem 630 nm) was recorded every 2 min (for 60 min) using a Cytation 5 imaging multi-mode reader (BioTek Instruments, Inc., Winooski, VT, USA).

[3] = target: T1, NDM-1 (Klebsiella pneumoniae, UniProt C7C422); assay: β-lactamase inhibition assay (imipenem); assay type: biochemical; conditions: imipenem substrate; read-out: BLi, IC50 NDM-1
T1 construct: purchased RayBiotech, Inc. 230-00554
Description: (§1) Recombinant AmpC, OXA-48 (residues 23–265) and VIM-2 (residues 27–266) were prepared from Escherichia coli based on previously established protocols. KPC-2 and NDM-1 are commercially available from LifeSpan Biosciences, Inc., Seattle, WA, USA (LS-G26598) and RayBiotech, Inc., Peachtree Corners, GA, USA (230-00554), respectively. For β-lactamase inhibition assay, in a 96-well plate, 70–0.1 μM (in PBS) of the synthesized compounds (1~14) (100 μL) were mixed with diluted β-lactamase stock (2% DMSO in 200 μL). In a separate 96-well plate, a substrate of AmpC, KPC-2, OXA-48, and VIM-2 (nitrocefin) and NDM-1 (imipenem) were added into each well (final concentrations of 70 μM for nitrocefin and 100 μM for imipenem). After incubation at 37 °C for 20 min, the mixture of the synthesized compounds (1~14) and β-lactamase in one plate was added to the substrate in the other plate. Enzymatic hydrolysis of the substrate was then monitored by a Cytation 5 imaging multimode reader (BioTek Instruments Inc., Winooski, VT, USA) at 486 nm and 300 nm for nitrocefin and imipenem, respectively, for 15 min. The rates of hydrolysis in the presence of the inhibitors were determined when the reaction rate plateaued. Comparison of the enzymatic hydrolysis rates in the presence and the absence of inhibitors (100%) provided the percentage of enzyme inhibition at each concentration of the synthesized compounds. The IC50 values were obtained after non-linear regression (sigmoidal dose-responses) by GraphPad Prism 5 (GraphPad Software, Boston, MA, USA).

[4] = target: AmpC; assay: β-lactamase inhibition assay (nitrocefin); assay type: biochemical; conditions: nitrocefin substrate; read-out: BLi, IC50 AmpC
Description: as §1

[5] = target: T2, OXA-48 (Klebsiella pneumoniae, UniProt Q6XEC0); assay: β-lactamase inhibition assay (nitrocefin); assay type: biochemical; conditions: nitrocefin substrate; read-out: BLi, IC50 OXA-48
T2 construct: OXA-48 (residues 23–265); made in house; host or cells: Escherichia coli
Description: as §1

[6] = target: T3, KPC-2 (Klebsiella pneumoniae, UniProt Q9F663); assay: β-lactamase inhibition assay (nitrocefin); assay type: biochemical; conditions: nitrocefin substrate; read-out: BLi, IC50 KPC-2
T3 construct: purchased LifeSpan Biosciences, Inc. LS-G26598
Description: as §1

[7] = target: T4, VIM-2 (Escherichia coli, UniProt Q5U7L7); assay: β-lactamase inhibition assay (nitrocefin); assay type: biochemical; conditions: nitrocefin substrate; read-out: BLi, IC50 VIM-2
T4 construct: VIM-2 (residues 27–266); made in house; host or cells: Escherichia coli
Description: as §1

[8] = tested on: PA-021, blaIMP; assay: MIC / checkerboard with ATM; assay type: cell-based, P. aeruginosa; design: key to Susceptibility category: S: susceptible; I: intermediate; R: resistant; conditions: PA-021; Table S2
[9] = tested on: PA-044, blaNDM; assay: MIC / checkerboard with ATM; assay type: cell-based, P. aeruginosa; design: key to Susceptibility category: S: susceptible; I: intermediate; R: resistant; conditions: PA-044; Table S2
[10] = tested on: PA-026, blaNDM; assay: MIC / checkerboard with ATM; assay type: cell-based, P. aeruginosa; design: key to Susceptibility category: S: susceptible; I: intermediate; R: resistant; conditions: PA-026; Table S2
[11] = tested on: PA-025, blaNDM; assay: MIC / checkerboard with ATM; assay type: cell-based, P. aeruginosa; design: key to Susceptibility category: S: susceptible; I: intermediate; R: resistant; conditions: PA-025; Table S2
[12] = tested on: PA-003, blaVIM; assay: MIC / checkerboard with ATM; assay type: cell-based, P. aeruginosa; design: key to Susceptibility category: S: susceptible; I: intermediate; R: resistant; conditions: PA-003, Table S2
[13] = tested on: PA-041, blaNDM; assay: MIC / checkerboard with ATM; assay type: cell-based, P. aeruginosa; design: key to Susceptibility category: S: susceptible; I: intermediate; R: resistant; conditions: PA-041; Table S2
[14] = tested on: PA-030, blaIMP; assay: MIC / checkerboard with ATM; assay type: cell-based, P. aeruginosa; design: key to Susceptibility category: S: susceptible; I: intermediate; R: resistant; conditions: PA-030; Table S2
[15] = tested on: PA-014, blaGES; assay: MIC / checkerboard with ATM; assay type: cell-based, P. aeruginosa; design: key to Susceptibility category: S: susceptible; I: intermediate; R: resistant; conditions: PA-014; Table S2
[16] = tested on: PA-027, blaIMP; assay: MIC / checkerboard with ATM; assay type: cell-based, P. aeruginosa; design: key to Susceptibility category: S: susceptible; I: intermediate; R: resistant; conditions: PA-027; Table S2
[17] = tested on: PA-009, blaGES; assay: MIC / checkerboard with ATM; assay type: cell-based, P. aeruginosa; design: key to Susceptibility category: S: susceptible; I: intermediate; R: resistant; conditions: PA-009; Table S2
[18] = tested on: PA-036, blaNDM; assay: MIC / checkerboard with ATM; assay type: cell-based, P. aeruginosa; design: key to Susceptibility category: S: susceptible; I: intermediate; R: resistant; conditions: PA-036; Table S2
[19] = tested on: PA-032, blaIMP; assay: MIC / checkerboard with ATM; assay type: cell-based, P. aeruginosa; design: key to Susceptibility category: S: susceptible; I: intermediate; R: resistant; conditions: PA-032, Table S2
[20] = tested on: PA-002, blaIMP; assay: MIC / checkerboard with ATM; assay type: cell-based, P. aeruginosa; design: key to Susceptibility category: S: susceptible; I: intermediate; R: resistant; conditions: PA-002, Table S2
[21] = tested on: PA-034, blaNDM; assay: MIC / checkerboard with ATM; assay type: cell-based, P. aeruginosa; design: key to Susceptibility category: S: susceptible; I: intermediate; R: resistant; conditions: PA-034; Table S2
[22] = tested on: PA-028, blaNDM; assay: MIC / checkerboard with ATM; assay type: cell-based, P. aeruginosa; design: key to Susceptibility category: S: susceptible; I: intermediate; R: resistant; conditions: PA-028; Table S2
[23] = tested on: PA-033, blaNDM; assay: MIC / checkerboard with ATM; assay type: cell-based, P. aeruginosa; design: key to Susceptibility category: S: susceptible; I: intermediate; R: resistant; conditions: PA-033; Table S2
[24] = tested on: PA-016, blaIMP; assay: MIC / checkerboard with ATM; assay type: cell-based, P. aeruginosa; design: key to Susceptibility category: S: susceptible; I: intermediate; R: resistant; conditions: PA-016; Table S2
[25] = tested on: PA-039, blaNDM; assay: MIC / checkerboard with ATM; assay type: cell-based, P. aeruginosa; design: key to Susceptibility category: S: susceptible; I: intermediate; R: resistant; conditions: PA-039; Table S2
[26] = tested on: PA-029, blaIMP; assay: MIC / checkerboard with ATM; assay type: cell-based, P. aeruginosa; design: key to Susceptibility category: S: susceptible; I: intermediate; R: resistant; conditions: PA-029; Table S2
[27] = tested on: PA-035, blaGES; assay: MIC / checkerboard with ATM; assay type: cell-based, P. aeruginosa; design: key to Susceptibility category: S: susceptible; I: intermediate; R: resistant; conditions: PA-035, Table S2
[28] = tested on: PA-031, blaNDM; assay: MIC / checkerboard with ATM; assay type: cell-based, P. aeruginosa; design: key to Susceptibility category: S: susceptible; I: intermediate; R: resistant; conditions: PA-031; Table S2
[29] = tested on: PA-038, blaNDM; assay: MIC / checkerboard with ATM; assay type: cell-based, P. aeruginosa; design: key to Susceptibility category: S: susceptible; I: intermediate; R: resistant; conditions: PA-038; Table S2
[30] = tested on: PA-040, blaNDM; assay: MIC / checkerboard with ATM; assay type: cell-based, P. aeruginosa; design: key to Susceptibility category: S: susceptible; I: intermediate; R: resistant; conditions: PA-040; Table S2
[31] = tested on: PA-037, blaIMP/NDM; assay: MIC / checkerboard with ATM; assay type: cell-based, P. aeruginosa; design: key to Susceptibility category: S: susceptible; I: intermediate; R: resistant; conditions: PA-037; Table S2
[32] = tested on: PA-042, blaIMP/NDM; assay: MIC / checkerboard with ATM; assay type: cell-based, P. aeruginosa; design: key to Susceptibility category: S: susceptible; I: intermediate; R: resistant; conditions: PA-042, Table S2
[33] = Pseudomonas aeruginosa, read-out: MIC value

T2 sequence (Q6XEC0 23-265 limits assumed): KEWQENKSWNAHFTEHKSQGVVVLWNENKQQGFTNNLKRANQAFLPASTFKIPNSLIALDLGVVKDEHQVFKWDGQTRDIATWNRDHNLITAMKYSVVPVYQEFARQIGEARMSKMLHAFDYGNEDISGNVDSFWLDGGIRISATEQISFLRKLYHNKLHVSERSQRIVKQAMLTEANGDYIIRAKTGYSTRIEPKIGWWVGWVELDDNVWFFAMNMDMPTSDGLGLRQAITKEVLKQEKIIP
T3 sequence (Q9F663 25-293, looked up, species assumed): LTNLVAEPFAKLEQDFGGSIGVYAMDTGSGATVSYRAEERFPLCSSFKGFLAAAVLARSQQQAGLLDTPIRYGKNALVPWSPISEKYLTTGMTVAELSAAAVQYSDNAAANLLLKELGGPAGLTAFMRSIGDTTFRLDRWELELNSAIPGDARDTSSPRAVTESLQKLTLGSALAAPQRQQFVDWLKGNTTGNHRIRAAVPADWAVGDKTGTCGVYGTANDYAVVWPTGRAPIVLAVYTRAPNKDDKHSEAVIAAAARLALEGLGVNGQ
T1 sequence (C7C422 29-270, looked up, species assumed): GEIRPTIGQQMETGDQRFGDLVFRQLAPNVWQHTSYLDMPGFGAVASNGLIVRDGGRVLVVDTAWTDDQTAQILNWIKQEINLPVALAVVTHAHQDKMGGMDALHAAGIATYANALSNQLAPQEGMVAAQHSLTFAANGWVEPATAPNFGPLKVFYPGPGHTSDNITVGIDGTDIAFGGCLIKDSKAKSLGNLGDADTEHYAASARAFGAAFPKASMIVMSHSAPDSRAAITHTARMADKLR

With `CN1CCCC1CCOc1cc(O)c2c(=O)c(OCCC(C)(C)C)c(-c3ccc(F)c(F)c3)oc2c1` (stereo not drawn) [Compound 12, 2-(3,4-Difluorophenyl)-3-(3,3-dimethylbutoxy)-5-hydroxy-7-(2-(1-methylpyrrolidin-2-yl)ethoxy)-4H-chromen-4-one] the “FD (fold decrease in the MIC of ATM upon combination with the compound)” value [1] was 2, the MIC [1] was over 256 µg/mL and the “EPi (inhibition of efflux pump activity)” value [2] was “- ^f”. It also gave an IC50 [3] of over 50 µM, an IC50 [4] of over 50 µM and an IC50 [5] of over 100 µM. The IC50 [6] was over 50 µM and the IC50 [7] was over 100 µM.

In the case of `O=c1c(OCCC2CCCCC2)c(-c2ccc(F)c(F)c2)oc2cc(O)cc(O)c12` [Compound 3], the “FD (fold decrease in the MIC of ATM upon combination with the compound)” value [1] is reported as 4, the MIC [1] is reported as over 256 µg/mL and the “EPi (inhibition of efflux pump activity)” value [2] is reported as “↑↑↑ ^e”. It also gave an IC50 [4] of 15.3 ± 1.5 µM.

`CC(C)(C)CCOc1c(-c2ccc(F)c(F)c2)oc2cc(OCC(=O)Nc3ccccc3)cc(O)c2c1=O` [Compound 9, 2-((2-(3,4-Difluorophenyl)-3-(3,3-dimethylbutoxy)-5-hydroxy-4-oxo-4H-chromen-7-yl)oxy)-N-phenylacetamide] was tested, and the “FD (fold decrease in the MIC of ATM upon combination with the compound)” value [1] was 1, the MIC [1] was over 256 µg/mL and the “EPi (inhibition of efflux pump activity)” value [2] was “- ^f”. The IC50 [3] was 7.6 ± 0.3 µM, the IC50 [4] was over 50 µM and the IC50 [5] was 6.4 ± 0.6 µM. The IC50 [6] was 26.2 ± 1.5 µM and the IC50 [7] was 12.6 ± 1.2 µM.

For `CC(C)(C)CCOc1c(-c2ccc(F)c(F)c2)oc2cc(OCC(=O)N[C@@H](CCCCN)C(=O)O)cc(O)c2c1=O.Cl` [Compound 11, (S)-6-Amino-2-(2-((2-(3,4-difluorophenyl)-3-(3,3-dimethylbutoxy)-5-hydroxy-4-oxo-4H-chromen-7-yl)oxy)acetamido)hexanoic Acid Hydrochloride], the “FD (fold decrease in the MIC of ATM upon combination with the compound)” value [1] was 1, the MIC [1] was over 256 µg/mL and the “EPi (inhibition of efflux pump activity)” value [2] was “- ^f”. The IC50 [3] was over 50 µM, the IC50 [4] was over 50 µM and the IC50 [5] was over 100 µM. It also gave an IC50 [6] of over 50 µM and an IC50 [7] of over 100 µM.

In the case of `O=c1c(OCCC2CCCC2)c(-c2ccc(F)c(F)c2)oc2cc(O)cc(O)c12` [Compound 2], the “FD (fold decrease in the MIC of ATM upon combination with the compound)” value [1] is reported as 2, the MIC [1] is reported as over 256 µg/mL and the “EPi (inhibition of efflux pump activity)” value [2] is reported as “↑↑↑ ^e”. For the same compound, the IC50 [4] was 21 ± 2.1 µM.

With `CC(C)(O/N=C(\C(=O)N[C@@H]1C(=O)N2C(C(=O)[O-])=C(C[n+]3ccccc3)CS[C@H]12)c1csc(N)n1)C(=O)O` [CAZ, ceftazidime, reference compound] the Susceptibility category [8] was “R”, the Susceptibility category ([1]; Table S2) was “R” and the Susceptibility category [9] was “R”. The Susceptibility category [10] was “R”, the Susceptibility category [11] was “R” and the Susceptibility category [12] was “S”. For the same compound, the MIC [12, 33] was 4 µg/mL, the Susceptibility category [13] was “R” and the Susceptibility category [14] was “R”. The Susceptibility category [15] was “R”, the Susceptibility category [16] was “R” and the Susceptibility category [17] was “R”. For the same compound, the Susceptibility category [18] was “R”, the Susceptibility category [19] was “S” and the MIC [19, 33] was 8 µg/mL. For the same compound, the Susceptibility category [20] was “R”, the MIC [20, 33] was over 16 µg/mL and the Susceptibility category [21] was “R”. The Susceptibility category [22] was “R”, the Susceptibility category [23] was “R” and the Susceptibility category [24] was “R”. The Susceptibility category [25] was “R”, the Susceptibility category [26] was “R” and the Susceptibility category [27] was “R”. The MIC [27, 33] was over 16 µg/mL, the Susceptibility category [28] was “R” and the Susceptibility category [29] was “R”. The Susceptibility category [30] was “R”, the Susceptibility category [31] was “R” and the Susceptibility category [32] was “R”. The MIC [32, 33] was over 16 µg/mL.
